{
  "source": "patent US4395399A",
  "about": "“Glycopeptides and method for preparing same” (Institut Bioorganicheskoi Khimii Imeni M.M. Shemyakina …, priority 1977, dated 1983)",
  "system": "8-day Krocker sarcoma (S-180)",
  "conditions": "for Necrotic reaction shown after 24 h, number of animals / Death of animals / Inhibition of the tumor growth, % of the control: intravenous; for Necrotic reaction shown after 24 h, number of animals: mice with 8-day sarcoma S-180, 24 h; for Death of animals / Necrosis caused by constituent components of the glycopeptides: mice with sarcoma S-180; for Inhibition of the tumor growth, % of the control: tumor volume or weight after 4-5 days",
  "key": {"[1]": {"conditions": "single intravenous dose 100 mg/kg"}},
  "note": "Like-named read-outs stand apart in the source and are kept apart here. Where a SMILES comes first, the peptide text is derived from it. [ ]: non-standard residue; d: D form.",
  "data": [
    {"compound": "CC(=O)NC1C(OC2C(CO)OC(O)C(NC(C)=O)C2OC(C)C(=O)NC(C)C(=O)NC(CCC(=O)O)C(N)=O)OC(CO)C(O)C1O", "note": "[Compound II, N-acetylglucosaminyl/1→4/N-acetylmuramyl-alanyl-D-isoglutamine]", "values": [
      {"measurement": "Necrotic reaction shown after 24 h, number of animals", "setting": "dose 50 mg/kg", "value": "8/10"},
      {"measurement": "Death of animals", "setting": "dose 50 mg/kg", "value": 0},
      {"measurement": "Inhibition of the tumor growth, % of the control", "setting": "dose 50 mg/kg", "value": "12 % of the control"},
      {"measurement": "Necrotic reaction shown after 24 h, number of animals", "setting": "dose 100 mg/kg", "value": "4/5"},
      {"measurement": "Death of animals", "setting": "dose 100 mg/kg", "value": 0},
      {"measurement": "Inhibition of the tumor growth, % of the control", "setting": "dose 100 mg/kg", "value": "70 % of the control"},
      {"measurement": "Hemopoiesis", "setting": "[1]", "value": "not inhibited"},
      {"measurement": "Number of leukocytes", "setting": "[1]", "value": "substantially increased"},
      {"measurement": "Signs of toxicity", "setting": "[1]", "value": "no signs of toxicity are noticed"},
      {"measurement": "Test animals with selective necrosis of the tumor tissue covering substantially the entire tumor", "setting": "single intravenous dose 100 mg/kg, 24 hours after administration", "value": "four out of five"},
      {"measurement": "Inhibition of the growth of the malignant tumor as compared to the control animals", "setting": "single intravenous dose 100 mg/kg, after 5 days", "value": 70, "unit": "%"}
    ]},
    {"compound": "CC(=O)NC1C(OC2C(CO)OC(O)C(NC(C)=O)C2OC(C)C(=O)NC(C)C(=O)NC(CCC(=O)O)C(=O)O)OC(CO)C(O)C1O", "note": "[III, N-acetylglucosaminyl/1→4/N-acetylmuramyl-alanyl-D-glutamic acid]", "values": [
      {"measurement": "Necrotic reaction shown after 24 h, number of animals", "setting": "dose 50 mg/kg", "value": "4/10"},
      {"measurement": "Necrotic reaction shown after 24 h, number of animals", "setting": "dose 100 mg/kg", "value": "3/5"}
    ]},
    {"compound": "CC(=O)N[C@H]1C(O[C@H]2[C@H](O[C@H](C)C(=O)O)[C@@H](NC(C)=O)C(O[C@H]3[C@H](O)[C@@H](NC(C)=O)C(O[C@H]4[C@H](O[C@H](C)C(=O)O)[C@@H](NC(C)=O)C(O)O[C@@H]4CO)O[C@@H]3CO)O[C@@H]2CO)O[C@H](CO)[C@@H](O)[C@@H]1O", "note": "(stereo partly shown) [IX, N-acetylglucosaminyl /1→4/-N-acetylmuramyl/1→4/N-acetylglucosaminyl/1→4/N- acetylmuramic acid]", "values": [
      {"measurement": "Necrotic reaction shown after 24 h, number of animals", "setting": "dose 250 mg/kg", "value": "0/10"},
      {"measurement": "Death of animals", "setting": "dose 250 mg/kg", "value": 0},
      {"measurement": "Inhibition of the tumor growth, % of the control", "setting": "dose 250 mg/kg", "value": "0 % of the control"},
      {"measurement": "Necrosis caused by constituent components of the glycopeptides", "value": "not caused"}
    ]},
    {"compound": "CC(=O)N[C@H]1C(O)O[C@H](CO)[C@@H](O)[C@@H]1O", "note": "(stereo partly shown) [VI, N-acetylglucosamine]", "values": [
      {"measurement": "Necrotic reaction shown after 24 h, number of animals", "setting": "dose 250 mg/kg", "value": 0.5},
      {"measurement": "Death of animals", "setting": "dose 250 mg/kg", "value": 0},
      {"measurement": "Inhibition of the tumor growth, % of the control", "setting": "dose 250 mg/kg", "value": "0 % of the control"},
      {"measurement": "Necrosis caused by constituent components of the glycopeptides", "value": "not caused"}
    ]},
    {"compound": "CC(=O)N[C@H]1C(O)O[C@H](CO)[C@@H](O)[C@@H]1O[C@H](C)C(=O)O", "note": "(stereo partly shown) [VII, N-acetylmuramic acid]", "values": [
      {"measurement": "Necrotic reaction shown after 24 h, number of animals", "setting": "dose 100 mg/kg", "value": "0/8"},
      {"measurement": "Death of animals", "setting": "dose 100 mg/kg", "value": 0},
      {"measurement": "Inhibition of the tumor growth, % of the control", "setting": "dose 100 mg/kg", "value": "37 % of the control"},
      {"measurement": "Necrotic reaction shown after 24 h, number of animals", "setting": "dose 250 mg/kg", "value": "0/8"},
      {"measurement": "Death of animals", "setting": "dose 250 mg/kg", "value": 25},
      {"measurement": "Inhibition of the tumor growth, % of the control", "setting": "dose 250 mg/kg", "value": "52 % of the control"},
      {"measurement": "Necrosis caused by constituent components of the glycopeptides", "value": "not caused"}
    ]},
    {"compound": "CC(=O)N[C@H]1C(O[C@H]2[C@H](O[C@H](C)C(=O)O)[C@@H](NC(C)=O)C(O)O[C@@H]2CO)O[C@H](CO)[C@@H](O)[C@@H]1O", "note": "(stereo partly shown) [VIII, N-acetylglucosaminyl/1→4/N-acetylmuramic acid]", "values": [
      {"measurement": "Necrotic reaction shown after 24 h, number of animals", "setting": "dose 100 mg/kg", "value": "0/10"},
      {"measurement": "Death of animals", "setting": "dose 100 mg/kg", "value": 0},
      {"measurement": "Inhibition of the tumor growth, % of the control", "setting": "dose 100 mg/kg", "value": "0 % of the control"},
      {"measurement": "Necrotic reaction shown after 24 h, number of animals", "setting": "dose 250 mg/kg", "value": "0/10"},
      {"measurement": "Death of animals", "setting": "dose 250 mg/kg", "value": 0},
      {"measurement": "Inhibition of the tumor growth, % of the control", "setting": "dose 250 mg/kg", "value": "0 % of the control"},
      {"measurement": "Necrosis caused by constituent components of the glycopeptides", "value": "not caused"}
    ]},
    {"compound": "C[C@H](N)C(=O)N[C@H](CCC(=O)O)C(N)=O", "note": "[X, Ala-D-Glu-NH2] (H-Ala-[dE]-NH2)", "values": [
      {"measurement": "Necrotic reaction shown after 24 h, number of animals", "setting": "dose 100 mg/kg", "value": "0/10"},
      {"measurement": "Death of animals", "setting": "dose 100 mg/kg", "value": 0},
      {"measurement": "Inhibition of the tumor growth, % of the control", "setting": "dose 100 mg/kg", "value": "+28 % of the control"},
      {"measurement": "Necrosis caused by constituent components of the glycopeptides", "value": "not caused"}
    ]},
    {"compound": "C[C@H](N)C(=O)N[C@H](CCC(=O)O)C(=O)O", "note": "[XI, Ala-D-Glu] (H-Ala-[dE]-OH)", "values": [
      {"measurement": "Necrotic reaction shown after 24 h, number of animals", "setting": "dose 100 mg/kg", "value": "0/8"},
      {"measurement": "Death of animals", "setting": "dose 100 mg/kg", "value": 0},
      {"measurement": "Inhibition of the tumor growth, % of the control", "setting": "dose 100 mg/kg", "value": "37.3 % of the control"},
      {"measurement": "Necrosis caused by constituent components of the glycopeptides", "value": "not caused"}
    ]},
    {"compound": "/1→4/-bis-[N-acetylglucosaminyl/1→4/N-acetylmuramyl-alanyl-D- isoglutamine] [V]", "values": [
      {"measurement": "Necrotic reaction shown after 24 h, number of animals", "setting": "dose 50 mg/kg", "value": "3/5"},
      {"measurement": "Death of animals", "setting": "dose 50 mg/kg", "value": 0},
      {"measurement": "Inhibition of the tumor growth, % of the control", "setting": "dose 50 mg/kg", "value": "66 % of the control"}
    ]},
    {"compound": "Amide of N^ε [Alanyl-D-glutamyl-D-iso-asparaginyl]-lysyl-D-alanine [XII]", "values": [
      {"measurement": "Necrotic reaction shown after 24 h, number of animals", "setting": "dose 250 mg/kg", "value": "0/5"},
      {"measurement": "Inhibition of the tumor growth, % of the control", "setting": "dose 250 mg/kg", "value": "0 % of the control"}
    ]},
    {"compound": "N-acetyl-glucosaminyl/1→4/N-acetylmuramylalanine [Compound I]", "values": [
      {"measurement": "Necrotic reaction shown after 24 h, number of animals", "setting": "dose 50 mg/kg", "value": "2/5"},
      {"measurement": "Death of animals", "setting": "dose 50 mg/kg", "value": 0},
      {"measurement": "Inhibition of the tumor growth, % of the control", "setting": "dose 50 mg/kg", "value": "17 % of the control"},
      {"measurement": "Necrotic reaction shown after 24 h, number of animals", "setting": "dose 100 mg/kg", "value": "3/5"},
      {"measurement": "Death of animals", "setting": "dose 100 mg/kg", "value": 0},
      {"measurement": "Inhibition of the tumor growth, % of the control", "setting": "dose 100 mg/kg", "value": "19 % of the control"}
    ]},
    {"compound": "amide of N^ε -[N-acetylglucosaminyl/1→4/N-acetylmuramyl-alanyl-D-glutamyl-D-iso- asparaginyl]-lysyl-D-alanine [IV]", "values": [
      {"measurement": "Necrotic reaction shown after 24 h, number of animals", "setting": "dose 50 mg/kg", "value": "3/5"},
      {"measurement": "Inhibition of the tumor growth, % of the control", "setting": "dose 50 mg/kg", "value": "23 % of the control"},
      {"measurement": "Necrotic reaction shown after 24 h, number of animals", "setting": "dose 100 mg/kg", "value": "3/5"},
      {"measurement": "Inhibition of the tumor growth, % of the control", "setting": "dose 100 mg/kg", "value": "41 % of the control"}
    ]}
  ]
}
